Experimental data from patent US5648379A (priority 1990, dated 1997).
Converted amounts (≈) assume the structure as drawn.

What was measured:
[1] = system: Vibrio cholerae neuraminidase; details: literature; cited from earlier work
[2] = system: influenza A/Singapore/1/57 (H2N2); test: microbe, parasite or virus in culture; assay type: cell-based; details: H2N2, MDCK, 72 h, read-out: IC50 Plaque Reduction, Influenza A
[3] = system: Influenza B/Victoria/102/85; test: microbe, parasite or virus in culture; assay type: cell-based; details: MDCK, 72 h, read-out: IC50 Plaque Reduction, Influenza B
[4] = system: H2N2 influenza A virus (A/Sing/1/57); assay type: in vivo, mice
[5] = target: sheep neuraminidase; test: In vitro inhibition of sheep neuraminidase; assay type: biochemical; details: pH 4.5
[6] = system: influenza virus; test: microbe, parasite or virus in culture; assay type: cell-based; details: unidentified influenza virus, read-out: IC50 plaque reduction
[7] = Effective dose in vivo (statement in description); details: compared with DANA

Q: Which “inhibition of Vibrio cholerae neuraminidase” value [1] does the source give for `CC(=O)NC1C(O)CC(C(=O)O)OC1C(O)C(O)CO` (centres unmarked) here?
A: did not inhibit

Q: What does the source list for `CC(=O)N[C@H]1[C@H]([C@H](O)[C@H](O)CO)OC(C(=O)O)=C[C@@H]1N=C(N)N` [Compound 7, Ammonium 5-Acetamido-4-guanidino-2,3,4,5-tetradeoxy-D-glycero-D-galacto-non-2-enopyranosonate]?
A: IC50 [2]: 1.6 µM; IC50 [3]: 1.6 µM; % AUC (lung virus titre, compared to untreated mice) ([4]; Experiment 2, 12.5 mg/kg intranasal, days 1-3): 0.03%; titre of virus in lung tissue ([4]; intranasal, before and during challenge, 1 to 3 days after infection): reduced the titre of virus in lung tissue; Ki [5]: > 10000 µM

Q: Which results are given for `COC(=O)C1=C[C@H](O)[C@@H](NC(C)=O)[C@H]([C@H](O)[C@H](O)CO)O1` [methyl ester of DANA]?
A: IC50 [6]: 50 to 100 mg/L (≈ 164 to 328 µM); effective dose, in words [7]: effective at proportionally higher dose
